Format in all cases: cell-based
For assay [1], the system named is Wnt activity (Sp5-Luc reporter, human Sp5 promoter with eight TCF/LEF binding sites) in SW480 colon carcinoma cells. The assay is described as follows: Screening assay for Wnt activity: Sp5-Luc reporter gene assay in SW480 cells. Particulars: for EC50: 10-point dose-response starting from 10 μM, overnight incubation; for inhibition at 10 µM: read-out: percent inhibition at 10 μM (given for EC50 of >10 μM). The procedure, abridged:
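SW480 cells stably carrying Sp5-Luc reporter (eight TCF/LEF sites) plated at 4,000/well in 1% FBS medium with compound (10-point 1:3 series from 10 μM, 0.1% DMSO) overnight at 37 °C. BrightGlo luminescence normalized to DMSO; EC50 by four-parameter fit, else % inhibition at 10 μM.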

The subject of the next assay is SW480 colon cancer cells. The assay is described as follows: Cell viability assay (CellTiter-Blue) in SW480 colon cancer cells. Particulars: Homo sapiens, 96 h; for inhibition at 10 µM: four days, CellTiter-Blue, read-out: percent inhibition at 10 μM (given for EC50 of >10 μM); for EC50: four days incubation, CellTiter-Blue cell viability. The method, boiled down:
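About 2×10^3 SW480 colon cancer cells per well were exposed to compound (8-point 1:3 dilutions, 10 μM to 0.004 μM) for four days at 37 °C. Viability was read by CellTiter-Blue resazurin reduction (~3 h, Ex 560/Em 590). EC50 from nonlinear regression; above 10 μM, % inhibition at 10 μM is reported.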
(The colour change of resazurin is a common sign of viable cells or microbes.)

Another assay relates to IL-6 in THP-1 cells. The assay is described as follows: Inhibition of IL-6 in LPS-stimulated THP-1 human monocyte cells (HTRF). Conditions: IL-6 HTRF; for EC50: 500 ng/mL LPS, 22 hours; for inhibition at 10 µM: LPS, read-out: percent inhibition in brackets (given for EC50 >10 μM). The procedure, abridged: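 THP-1 cells, serum-reduced (1% FBS) for 24 h, were exposed to compound (1:3, 10-point series from 10 μM; 0.1% DMSO) for 2 h, then 500 ng/mL LPS for 22 h at 37° C. Secreted IL-6 measured by HTRF (665/620 ratio), normalised to DMSO; EC50 by four-parameter fit, else % inhibition at 10 μM.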
(In general: In TR-FRET formats the signal depends on donor and acceptor labels being close together.)

Structures are written as SMILES.

Broadly, the EC50 is the concentration that produces a half-maximal response. Usually inhibition stands for the change of the read-out against control, counted positive when it falls. As to `CC(C)(C)C(=O)Nc1cncc(-c2ccc3[nH]nc(-c4nc5c(-c6ccc(Cl)s6)cncc5[nH]4)c3n2)c1` [Compound 998, N-(5-(3-(7-(5-Chlorothiophen-2-yl)-3H-imidazo[4,5-c]pyridin-2-yl)-1H-pyrazolo[4,3-b]pyridin-5-yl)pyridin-3-yl)pivalamide], the values for the EC50 (in assay [1]; in the assay with SW480 colon cancer cells; in the assay with IL-6 in THP-1 cells) were 0.551 µM, more than 10 µM and more than 10 µM, respectively. Further, the inhibition at 10 µM in the assay with SW480 colon cancer cells was 1.5%; in the assay with IL-6 in THP-1 cells it was 43%.
On to `Oc1cncc(-c2ccc3[nH]nc(-c4nc5c(N6CCCCC6)cncc5[nH]4)c3n2)c1` [Compound 585, 5-(3-(7-(Piperidin-1-yl)-3H-imidazo[4,5-c]pyridin-2-yl)-1H-pyrazolo[4,3-b]pyridin-5-yl)pyridin-3-ol], for which the inhibition at 10 µM in assay [1] came out at 4.3%; in the assay on SW480 colon cancer cells it was 2.4%. Also, the values for the EC50 (in assay [1]; with SW480 colon cancer cells; with IL-6 in THP-1 cells) were more than 10 µM, more than 10 µM and 1.38 µM, respectively.
For `CN(C)Cc1cncc(-c2ccc3[nH]nc(-c4nc5c(-c6cccc(F)c6)cncc5[nH]4)c3n2)c1` [Compound 13, 1-(5-(3-(7-(3-Fluorophenyl)-3H-imidazo[4,5-c]pyridin-2-yl)-1H-pyrazolo[4,3-b]pyridin-5-yl)pyridin-3-yl)-N,N-dimethylmethanamine], the EC50 is 1.1 µM in assay [1], 0.784 µM in the assay on SW480 colon cancer cells and 1.54 µM in the assay with IL-6 in THP-1 cells.
For `O=C(Nc1cncc(-c2ccc3[nH]nc(-c4nc5c(-c6ccc(Cl)s6)cncc5[nH]4)c3n2)c1)C1CCC1` [Compound 1011, N-(5-(3-(7-(5-Chlorothiophen-2-yl)-3H-imidazo[4,5-c]pyridin-2-yl)-1H-pyrazolo[4,3-b]pyridin-5-yl)pyridin-3-yl)cyclobutanecarboxamide], the EC50 in assay [1] was 0.8 µM; in the assay on SW480 colon cancer cells, 2.51 µM; in the assay with IL-6 in THP-1 cells, more than 10 µM. The inhibition at 10 µM in the assay with IL-6 in THP-1 cells came out at 32.4%.
Consider `Cc1cn(-c2cncc3[nH]c(-c4n[nH]c5ccc(-c6cncc(OCCN(C)C)c6)nc45)nc23)cn1` [Compound 599, N,N-Dimethyl-2-((5-(3-(7-(4-methyl-1H-imidazol-1-yl)-3H-imidazo[4,5-c]pyridin-2-yl)-1H-pyrazolo[4,3-b]pyridin-5-yl)pyridin-3-yl)oxy)ethan-1-amine], for which the inhibition at 10 µM in assay [1] stood at 6.3%; in the assay on SW480 colon cancer cells, 7.1%; with IL-6 in THP-1 cells, 22.5%. Besides, the EC50 (in assay [1]; in the assay with SW480 colon cancer cells; with IL-6 in THP-1 cells) was more than 10 µM each time.
As to `Cc1ccc(-c2cncc3[nH]c(-c4n[nH]c5ccc(-c6cncc(N)c6)nc45)nc23)s1` [Compound 367, 5-(3-(7-(5-Methylthiophen-2-yl)-3H-imidazo[4,5-c]pyridin-2-yl)-1H-pyrazolo[4,3-b]pyridin-5-yl)pyridin-3-amine], the EC50 is 0.041 µM in assay [1], 0.097 µM in the assay on SW480 colon cancer cells and 0.125 µM with IL-6 in THP-1 cells.
Turning to `CN(C)c1cncc(-c2ccc3[nH]nc(-c4nc5c(-c6cccc(F)c6)cncc5[nH]4)c3n2)c1` [Compound 7, 5-(3-(7-(3-Fluorophenyl)-3H-imidazo[4,5-c]pyridin-2-yl)-1H-pyrazolo[4,3-b]pyridin-5-yl)-N,N-dimethylpyridin-3-amine], the results for the EC50 (in assay [1]; in the assay on SW480 colon cancer cells; in the assay with IL-6 in THP-1 cells) were 0.638 µM, 0.86 µM and 0.341 µM, respectively.
Turning to `FC1(F)CCN(Cc2cncc(-c3ccc4[nH]nc(-c5nc6c(-c7ccsc7)cncc6[nH]5)c4n3)c2)C1` [Compound 278, 5-(5-((3,3-difluoropyrrolidin-1-yl)methyl)pyridin-3-yl)-3-(7-(thiophen-3-yl)-3H-imidazo[4,5-c]pyridin-2-yl)-1H-pyrazolo[4,3-b]pyridine], the EC50 was determined as 1.03 µM in assay [1], 1.02 µM in the assay with SW480 colon cancer cells and 5.79 µM in the assay with IL-6 in THP-1 cells.
As to `Cc1cn(-c2cncc3[nH]c(-c4n[nH]c5ccc(C6=CCNCC6)nc45)nc23)cn1` [Compound 590, 3-(7-(4-Methyl-1H-imidazol-1-yl)-3H-imidazo[4,5-c]pyridin-2-yl)-5-(1,2,3,6-tetrahydropyridin-4-yl)-1H-pyrazolo[4,3-b]pyridine], the inhibition at 10 µM in assay [1] stood at 6.8%; with SW480 colon cancer cells, 10%; in the assay on IL-6 in THP-1 cells, 11.5%. The EC50 (in assay [1]; in the assay with SW480 colon cancer cells; in the assay on IL-6 in THP-1 cells) was more than 10 µM throughout.
`c1ncc(-c2ccc3[nH]nc(-c4nc5c(N6CCCCC6)cncc5[nH]4)c3n2)cc1OCCN1CCCC1` [Compound 582, 3-(7-(Piperidin-1-yl)-3H-imidazo[4,5-c]pyridin-2-yl)-5-(5-(2-(pyrrolidin-1-yl)ethoxy)pyridin-3-yl)-1H-pyrazolo[4,3-b]pyridine]: the inhibition at 10 µM in assay [1] was determined as 6.6%; with SW480 colon cancer cells, 15.8%. Besides, the 50% effective concentration (EC50) is more than 10 µM in assay [1], more than 10 µM in the assay on SW480 colon cancer cells and 1.63 µM with IL-6 in THP-1 cells.
For `CC(C)CC(=O)Nc1cncc(-c2ccc3[nH]nc(-c4nc5c(-c6ccc(Cl)s6)cncc5[nH]4)c3n2)c1` [Compound 992, N-(5-(3-(7-(5-Chlorothiophen-2-yl)-3H-imidazo[4,5-c]pyridin-2-yl)-1H-pyrazolo[4,3-b]pyridin-5-yl)pyridin-3-yl)-3-methylbutanamide], the results for the EC50 (in assay [1]; with SW480 colon cancer cells; in the assay with IL-6 in THP-1 cells) were 4.08 µM, more than 10 µM and more than 10 µM, respectively. In addition, the results for the inhibition at 10 µM with SW480 colon cancer cells and in the assay with IL-6 in THP-1 cells were 25.1% and 29.8%, respectively.
On to `CC(C)Nc1cncc(-c2ccc3[nH]nc(-c4nc5c(-c6cc(F)cc(NCCN(C)C)c6)cncc5[nH]4)c3n2)c1` [Compound 432, N^1-(3-Fluoro-5-(2-(5-(5-(isopropylamino)pyridin-3-yl)-1H-pyrazolo[4,3-b]pyridin-3-yl)-3H-imidazo[4,5-c]pyridin-7-yl)phenyl)-N^2,N^2-dimethylethane-1,2-diamine], for which the EC50 in assay [1] turned out to be 1.66 µM; in the assay on SW480 colon cancer cells, 5.36 µM; with IL-6 in THP-1 cells it was 2.29 µM.
On to `c1cc(-c2cncc3[nH]c(-c4n[nH]c5ccc(-c6cncc(CNCC7CCCC7)c6)nc45)nc23)co1` [Compound 305, 1-Cyclopentyl-N-((5-(3-(7-(furan-3-yl)-3H-imidazo[4,5-c]pyridin-2-yl)-1H-pyrazolo[4,3-b]pyridin-5-yl)pyridin-3-yl)methyl)methanamine], for which the values for the EC50 (in assay [1]; with SW480 colon cancer cells; with IL-6 in THP-1 cells) were 8.61 µM, 4.61 µM and more than 10 µM, respectively. Moreover, in the assay with IL-6 in THP-1 cells, the inhibition at 10 µM amounted to 24.5%.
Consider `Cc1ccncc1-c1ccc2[nH]nc(-c3nc4c(-c5ccsc5)cncc4[nH]3)c2n1` [Compound 257, 5-(4-Methylpyridin-3-yl)-3-(7-(thiophen-3-yl)-3H-imidazo[4,5-c]pyridin-2-yl)-1H-pyrazolo[4,3-b]pyridine], for which the values for the EC50 (in assay [1]; in the assay on SW480 colon cancer cells; with IL-6 in THP-1 cells) were 0.641 µM, 0.856 µM and more than 10 µM, respectively. For the same compound, the inhibition at 10 µM with IL-6 in THP-1 cells is 11.5%.
